Experimental data from patent publication US20100029654A1, “CARDIOVASCULAR COMPOSITIONS AND USE OF THE SAME FOR THE TREATMENT OF ALZHEIMER'S DISEASE” (MOUNT SINAI SCHOOL OF MEDICINE, priority 2006, published 2010).
Structures can show the parent of a compound that is named as a salt. Where two headings read alike, the source gives them in different places.

Assays:
[1] = system: Aβ1-40; assay: Aβ1-40 content in conditioned medium of primary cortico-hippocampal neuron cultures from Tg2576 mice (ELISA; primary and secondary dose-response screening); format: cell-based, mouse; settings: for activity at 100 µM: 24 h, read-out: Ab1-40 (% of ctl)
Outline: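 Primary cortico-hippocampal neurons from embryonic Tg2576 mice were plated at 1.0×10^5 cells per well on poly-D-lysine-coated 96-well plates in Neurobasal with 2% B27, 0.5 mM L-glutamine and 1% penicillin-streptomycin. Cultures received drug in 1% DMSO, and Aβ1-40 in the conditioned medium was measured by BioSource ELISA 24 hours after treatment, relative to vehicle controls.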

[2] = system: primary cortico-hippocampal neuron cultures
[3] = system: Aβ1-42; assay: Aβ1-42 content in conditioned medium of primary cortico-hippocampal neuron cultures from Tg2576 mice (ELISA; primary and secondary dose-response screening); format: cell-based, mouse; settings: for Ab1-42 (% of ctl) / activity at 100 µM: drug 100 μM; for reducing Aβ1-42: <85% of ctl; for activity at 100 µM: Mus musculus, Neuron, 24 h, read-out: Ab1-42 (% of ctl)
Outline: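 This screen tested cardiovascular drugs for Aβ-lowering in Tg2576 embryonic cortico-hippocampal neuron cultures plated at 1.0×10^5 cells per well in poly-D-lysine-coated 96-well plates with Neurobasal/B27 medium. Drugs at 100 μM were added directly to the medium in duplicate, with 1% DMSO alone as the control. Conditioned medium was then collected, and its Aβ1-42 level was quantified with BioSource ELISA kits.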

[4] = system: primary cortico-hippocampal neuron cultures; remark: listed apart in the source
Description: (§4) For in vitro treatments drugs available from “The Spectrum Collection” in stocks of 10 mM in DMSO were applied directly to cultures to the desired concentrations (final 1% DMSO); control primary neuron cultures from Tg2576 embryos were treated with vehicle resulting in a final 1% DMSO.
(§5) Cell viability was assessed using a commercial available LDH assay kit according to the manufacture's instruction (Promega).

[5] = system: Aβ1-42; assay: Aβ1-42 content in conditioned medium of primary cortico-hippocampal neuron cultures from Tg2576 mice (ELISA; primary and secondary dose-response screening); format: cell-based, mouse
[6] = stability of valsartan salt (solid, aqueous; TLC); format: physicochemical; settings: 50 and 200 mg/L, 3-10 week old solutions, room temperature, dark
Description: The solution is cooled to room temperature slowly without external cooling to discourage precipitation of the drug.
The solution was then cooled to room temperature slowly without external cooling to discourage precipitation of the drug. […] Quality was assessed in 3-10 week old solutions stored at room temperature in dark compartments. Drinking solutions for the in vivo treatments were freshly prepared twice a week. Liquid consumption and animal body weight were monitored weekly throughout the study.

[7] = system: primary cortico-hippocampal neuron cultures; assay: lactate dehydrogenase (LDH) activity assay in parallel neuron cultures
Description: as §4, §5

[8] = system: primary cortico-hippocampal neuron cultures; assay: MTT in primary screening
[9] = system: Aβ1-42; settings: Tg2576, short-term dosing, subclinical or clinical concentrations
Description: Cognitive behavioral function was assessed using the Morris water maze (MWM). After completion of the MWM test, blood pressure measurements were quantified as describe in FIG. 1 legends. Following MWM testing and blood pressure assessment, mice were sacrificed for neuropathological assessment. […] C, (inset), total immunoreactive APP content normalized to β-actin signal. In C-D, bar graphs represent group mean±SEM, n=6-10 mice per group.
(§1) FIG. 7. […] Bar graphs represent group mean±SEM, n=3 mice per group. 2-tailed t-test: *P<0.05.
(§2) Assessment of AD-type amyloid neuropathology in Tg2576 mice. For quantitative assessment of Aβ peptide in the brain, frozen pulverized tissue was homogenized in 5.0 M guanidine buffer, diluted (1:10) in phosphate-buffered saline containing 0.05% (v/v) Tween-20 and 1 mM Pefabloc protease inhibitors (Roche Biochemicals, Indianapolis, Ind.), and centrifuged for 20 min at 4° C. […] Serum Aβ content was analyzed using the same ELISA Kit, following manufacturer instructions.

[10] = system: Tg2576 mice; assay: blood pressure (systolic, diastolic, MAP) by tail-cuff; format: in vivo, mouse
Description: FIG. 1 Tg2576 mice are characterized by normal blood pressure under basal conditions. Baseline measurements of systolic, diastolic blood pressure, and mean arteriole blood pressure (MAP) in ˜11 month old female Tg2576 mice. Strain-, age-, gender-matched WT mice were measured using a commercial blood pressure analysis system designed specifically for small rodents (Hatteras Instruments, NC). Following manufacturer's instruction, mice were temporarily immobilized in a restraining chamber and an inflated tail-cuff wrapped around the tail was used to measure the systolic pressure, diastolic pressure, and MAP. Each blood pressure determination was calculated as the mean of 10 individual measurements per animal (n=6-10 group).
FIG. 6A-C show body weight of mice in response to ˜3 weeks of treatment. […] FIG. 6D-F show the assessment of systolic, diastolic, and MAP blood pressure in Tg2576 mice in response to drug doses below or within the range of those prescribed in hypertension. Blood pressure measurements were conducted using a commercial blood pressure analysis system designed specifically for small rodents (Hatteras Instruments, NC). Following manufacturer's instruction, mice were temporarily immobilized in a restraining chamber and an inflated tail-cuff wrapped around the tail was used to measure pressures. Each blood pressure determination was calculated as the mean of 10 individual measurements per animal. In A-F, values represent mean±SEM values, n=3-5 mice per group. 2-tailed t-test: *P<0.05.
Assessment of blood pressure and glucose utilization. Mouse blood pressure was routinely recorded using a commercial blood pressure analysis system designed specifically for small rodents (Hatteras Instruments, NC). […] Briefly, mice were given a single dose of glucose post-prandially (i.p. 2 g/kg body weight). Blood was collected from the tail-vein periodically over a 2-hour period. Blood glycemic content was assessed using the OneTouch LifeScan System, (LifeScan, Milpitas, Calif.) following the manufacturer's instruction.

[11] = system: Tg2576 mice; assay: tolerability: body weight, fluid consumption, glucose tolerance; settings: for fluid intake: Tg2576, short-term dosing
[12] = system: Aβ1-42 and Aβ1-40; assay: Aβ1-42 and Aβ1-40 content in peripheral blood (plasma, serum) by ELISA; format: in vivo, mouse; settings: for plasma Aβ1-42 levels (and Aβ1-40): Tg2576, doses ~3 fold lower than minimal hypertension dose; for plasma Aβ1-42 (and Aβ1-40): Tg2576, within the dosage range prescribed for hypertension
Description: as §1, §2

[13] = propranolol-HCL detection in brain and plasma (LC-MS); format: in vivo, mouse; settings: Tg2576, 10 mg/kg/day in drinking water, three weeks
Description: In this short-term dosing study, Tg2576 mice were treated with propranolol-HCL for three-weeks at a concentration ˜3 fold lower than used for treatment of hypertension (10 mg/kg/day delivered in the drinking water). At the time of sacrifice, emicerebellum (pool from N=3 per group) was homogenized 0.4 M perchloric acid, centrifuged (3,000×g; 15 min), and the […] layer evaporated by heating (Botterblom et al., 1993), while the residual diethyl-ether and acidic aqueous layer was used for analysis. Plasma from propranolol-HCL treated mice (pooled, n=3 per group) was extracted using a modified protocol (Martin et al., 2004) mixing equal volumes of plasma in 0.1% NaOH. Propanolol-HCL was then extracted by ethyl acetate and centrifuged. The acidic […] layers were then dried, samples were analyzed by tandem liquid chromatography—mass spectrometry, and concentration was determined against an internal standard, in a range of quantification of n between 1-1,000 ng/ml.

[14] = system: Aβ peptides; assay: Aβ peptide profile in the brain by IP-MS; settings: Tg2576, 10 or 60 mg/Kg/day, 3 weeks
[15] = system: α-secretase; settings: Tg2576, propranolol-HCL, neocortex
Description: (§3) Brain samples were homogenized in supplied buffers. Homogenate was then added to secretase-specific APP peptide conjugated to the reporter molecules EDANS and DABCYL. […] Cleavage of APP peptide by secretase physically separates the EDANS and DABCYL reporter molecules, allowing for the release of a fluorescent signal. The level of secretase enzymatic activity is proportional to the fluorometric reaction in the homogenate (R & D Systems).

[16] = target: β-secretase (Mus musculus, UniProt P56818); settings: Tg2576, propranolol-HCL, neocortex
Chain of β-secretase (P56818 46-501): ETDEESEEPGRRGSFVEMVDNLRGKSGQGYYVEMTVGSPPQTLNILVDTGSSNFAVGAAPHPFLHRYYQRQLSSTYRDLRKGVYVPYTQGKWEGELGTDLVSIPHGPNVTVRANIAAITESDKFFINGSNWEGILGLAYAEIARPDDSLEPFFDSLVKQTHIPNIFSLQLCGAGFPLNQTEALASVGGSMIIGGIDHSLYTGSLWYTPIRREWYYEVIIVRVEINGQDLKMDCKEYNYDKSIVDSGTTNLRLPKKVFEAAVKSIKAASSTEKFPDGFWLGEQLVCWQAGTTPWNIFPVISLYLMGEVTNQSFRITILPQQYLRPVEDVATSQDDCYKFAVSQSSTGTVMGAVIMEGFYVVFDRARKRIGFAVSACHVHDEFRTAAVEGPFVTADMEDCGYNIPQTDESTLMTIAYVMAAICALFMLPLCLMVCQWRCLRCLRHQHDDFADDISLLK
Description: as §3

[17] = system: γ-secretase; settings: Tg2576, propranolol-HCL, neocortex
Description: as §3

[18] = Primary Screening, drug 100 μM, table sorted by Aβ1-40
[19] = Primary Screening, table sorted by Aβ1-40
[20] = primary screening, table sorted by Aβ1-42
[21] = Tg2576, 3 weeks, doses within the range used for hypertension
[22] = Tg2576, 3 weeks, doses ~3 fold below the minimal hypertension dose
[23] = primary screening, Tg2576 neuron cultures, table sorted by Aβ1-42

## CC(Cc1ccc(O)cc1)NCC(O)c1cc(O)cc(O)c1 (stereo not shown) [Fenoterol Hydrobromide]
[1]; Mus musculus, primary screening, drug 100 μM, Tg2576 neuron cultures, table sorted by Aβ1-42
  activity at 100 µM: 89.3%
[1]; [18]
  Ab1-40 (% of ctl): 89.3 % of ctl
[2]; Tg2576, mouse
  MTT (% of ctl): 93.9 % of ctl
[3]; [19]
  Ab1-42 (% of ctl): 78.8 % of ctl
[3]; primary screening
  reducing Aβ1-42: useful in reducing Aβ1-42
[4]; Tg2576, mouse
  LDH (% of ctl): 104.3 % of ctl
[5]; Mus musculus, 24 h, primary screening, drug 100 μM, Tg2576 neuron cultures, table sorted by Aβ1-42, read-out: Ab1-42 (% of ctl)
  activity at 100 µM: 78.8%

## CCCCC(=O)N(Cc1ccc(-c2ccccc2-c2nnn[nH]2)cc1)[C@H](C(=O)O)C(C)C [Sodium valsartan]
[6]
  stability of drinking solutions by TLC analysis: no change in the recovered compound

## COC(=O)C1=C(C)NC(C)=C(C(=O)OCCN(C)Cc2ccccc2)C1c1cccc([N+](=O)[O-])c1 (stereo not shown) [Nicardipine Hydrochloride]
[1]; Mus musculus, Neuron, Primary Screening, drug 100 μM, table sorted by Aβ1-40
  activity at 100 µM: 10.7%
[1]; Mus musculus, Neuron, primary screening, drug 100 μM, Tg2576 neuron cultures, table sorted by Aβ1-42
  activity at 100 µM: 10.7%
[1]; Mus musculus, Neuron, Table IV, dose-response 0.01-100 μM, read-out: EC50 (M): Ab-lowering activity Abeta1-40
  EC50: 3.64e-05 M
[1]; primary screening, <85% of ctl
  reduced Aβ1-40: reduced Aβ1-40
[7]; [19]
  LDH (% of ctl): 104.2 % of ctl
[7]; Table IV
  LDH (at 5F-5 M): no change
[7]; [20]
  LDH (% of ctl): 104.2 % of ctl
[8]; [19]
  MTT (% of ctl): 52.4 % of ctl
[8]; [20]
  MTT (% of ctl): 52.4 % of ctl
[9]
  steady state levels of Aβ1-42 in hippocampal formation or cerebral cortex: significantly reduced steady state levels of Aβ1-42
[10]; [21]
  systolic, diastolic, MAP blood pressure: decreased systolic, diastolic, and MAP blood pressure
[10]; [22]
  systolic, diastolic, MAP blood pressure: did not significantly influence either systolic, diastolic or MAP blood pressure
[10]; Tg2576, any dose 3-18 mg/kg/day
  systolic, diastolic, MAP blood pressure: No detectable changes
[11]
  fluid intake: did not significantly influence the amount of fluid intake
[12]
  plasma Aβ1-42 levels (and Aβ1-40): prevented plasma accumulation of Aβ1-42 levels
  plasma Aβ1-42 (and Aβ1-40): lowering responses were found
[3]; [19]
  activity at 100 µM: 27.6%
[3]; [23]
  activity at 100 µM: 27.6%
[3]; primary screening
  reducing Aβ1-42: useful in reducing Aβ1-42
[5]; Mus musculus, Neuron, Table IV, dose-response 0.01-100 μM, read-out: EC50 (M): Ab-lowering activity
  EC50: 0.000119 M

## CC(=O)[O-].CC(=O)[O-].[Cd+2] [Cadmium Acetate]
[1]
  Ab1-40 (% of ctl): 29.5 % of ctl
  reduced Aβ1-40: reduced Aβ1-40
[2]
  MTT (% of ctl): 29.1 % of ctl
[4]
  LDH (% of ctl): 889.8 % of ctl
[5]
  Ab1-42 (% of ctl): 3.8 % of ctl
  reducing Aβ1-42: useful in reducing Aβ1-42

## CC(C)NCC(O)COc1cccc2ccccc12.Cl (racemic) [Propranolol Hydrochloride (+/−)]
[1]; [18]
  Ab1-40 (% of ctl): 65.2 % of ctl
[1]; primary screening, <85% of ctl
  reduced Aβ1-40: reduced Aβ1-40
[1]; primary screening, drug 100 μM, Tg2576 neuron cultures, table sorted by Aβ1-42
  Ab1-40 (% of ctl): 65.2 % of ctl
[9]
  steady state levels of Aβ1-42 in hippocampal formation or cerebral cortex: significantly reduced steady state levels of Aβ1-42
[13]
  level in the cerebellum: nM levels
[10]; [21]
  systolic, diastolic, MAP blood pressure: decreased systolic, diastolic, and MAP blood pressure
[10]; [22]
  systolic, diastolic, MAP blood pressure: did not significantly influence either systolic, diastolic or MAP blood pressure
[11]
  fluid intake: did not significantly influence the amount of fluid intake
[11]; Tg2576, short-term, 3 weeks, doses ~3 fold below or within hypertension range, drinking water
  tolerability (body weight): well-tolerated
[14]
  Aβ1-34, Aβ1-37, Aβ1-38, Aβ1-39, Aβ1-40 in the brain (IP-MS): dose-dependent reduction of most of the detectable Aβ species
  Aβ1-42 content in the neocortex (IP-MS): dose dependent decrease in Aβ1-42 content
[12]
  plasma Aβ1-42 levels (and Aβ1-40): prevented plasma accumulation of Aβ1-42 levels
  plasma Aβ1-42 (and Aβ1-40): lowering responses were found
[3]; [19]
  Ab1-42 (% of ctl): 93.4 % of ctl
[3]; [23]
  Ab1-42 (% of ctl): 93.4 % of ctl
[15]
  α-secretase activity in the brain: no detectable change
[16]
  β-secretase activity in the brain: selective decrease in β-secretase activity
[17]
  γ-secretase activity in the brain: no detectable change
